Experimental data published in paper PMC12613848, “First in human phase 1 study of DT2216, a selective BCL-xL degrader, in patients with relapsed/refractory solid malignancies” (Journal of Hematology & Oncology, 2025).
“And” between values parts separate entries of the source, which are not always exact repeats. Identical values can stand only once. “Also recorded” adds a separate entry of the source.

Assays:
[1] = Safety and tolerability in patients (adverse events CTCAE v5.0, DLT, platelet count, RP2D); format: in vivo, human
Protocol: Dose escalation consisted of the administration of DT2216 intravenously twice weekly at several different doses outlined in protocol attached. The starting dose was 0.04 mg/kg, established based on pre-clinical toxicity studies. Safety was evaluated using CTCAE version 5.0. The initial three dose levels enrolled one patient, following which for dose level 4 and 5, a 3 + 3 design was utilized following a 100% incremental dose increase for dose levels 2 to 5 until the first dose limiting toxicity (DLT) in cycle 1 was observed. Thereafter, a modified Fibonacci sequence was used to define dose escalation increments until the maximum tolerated dose (MTD) was reached as described in protocol. If no dose-limiting toxicity (DLT) was observed during the DLT monitoring period of first 28 days, the next patient was enrolled at the next higher dose level. Dose-limiting toxicities (DLTs) during the first treatment cycle were defined as any Grade 5 toxicity; Grade 4 neutropenia lasting > 7 days; febrile neutropenia; Grade 4 thrombocytopenia or Grade 3 thrombocytopenia with clinically significant hemorrhage or lasting ≥ 7 days; and Grade ≥ 3 non-hematologic toxicities, excluding nausea, vomiting, or diarrhea lasting ≤ 3 days or transient laboratory abnormalities resolving within 72 h. Hepatotoxicity meeting Hy’s law criteria was also considered a DLT. Transient Grade 3–4 electrolyte abnormalities resolving to ≤ Grade 2 within 72 h were not considered DLTs.
(§1) Patients were allowed a maximum of two intra-patient dose escalations. Patients received DT2216 by intravenous infusion on days 1 and 4 weekly for at least 4 weeks, with each cycle consisting of a 28-day cycle for a maximum duration of 1 year until disease progression, unacceptable toxicity, or other withdrawal criteria, as listed in the protocol. The extent of disease was evaluated using imaging studies and disease-appropriate tumor markers every 8 weeks from day 1 of the first cycle. RP2D was established based on MTD as well as other relevant data, including clinical signals of activity, PK, and PD data.
(§2) Premedication prior to each infusion was at the discretion of the investigator or according to institutional guidelines. Patient assessment and follow-up procedures can be found in the schedule of assessments in this study. The clinical response was evaluated using RECIST v1.1 per protocol. Blood samples were collected for PK analysis before and after post-infusion at defined intervals, along with platelet counts. Exploratory biomarkers include (but are not limited to) the assessment of BCL-XL and VHL levels in peripheral white blood cells (WBC).

advanced solid tumors = assay: Efficacy in patients (RECIST v1.1, Kaplan-Meier survival); format: in vivo, human
Description: The primary objective of the escalation phase was to determine the recommended phase 2 dose (RP2D) for DT2216. The secondary objectives were to characterize the adverse event (AE) profile, determine the pharmacokinetic profile (PK)/pharmacodynamic profile (PD) and describe preliminary evidence of efficacy using objective response rate (ORR), disease control rate (DCR), and progression-free survival (PFS) based on Response Evaluation Criteria in Solid Tumors (RECIST) v1.1. Exploratory objectives were to characterize the baseline and on-treatment expression of BCL-XL and VHL on blood lymphocytes, as well as other circulating biomarkers. Exploratory objectives included characterizing the baseline and on-treatment changes in platelet count and correlating them with DT2216 drug levels.
as §1, §2
Descriptive statistics were used to display dose escalation data and results. Continuous variables, including baseline characteristics, will be summarized by reporting the number of observations, mean, standard deviation, median, minimum, and maximum values. Categorical/discrete variables will be summarized using frequency tables that show the number and percentage of subjects within a category. Time-to-event analysis was performed using the Kaplan–Meier method. The overall response rate (ORR) and its 2-sided 95% confidence interval (CI) were calculated using the Clopper-Pearson method.

VHL = molecular target: T1, VHL (Homo sapiens, UniProt P40337); assay: VHL expression in peripheral white blood cells of patients; format: in vivo; conditions: 0.4 mg/kg IV, 4 patients, after C1D1
T1 construct: assessment of BCL-XL and VHL levels in peripheral white blood cells (WBC); endogenous in cells; host or cells: peripheral white blood cells of trial patients
T1 sequence (P40337 whole entry): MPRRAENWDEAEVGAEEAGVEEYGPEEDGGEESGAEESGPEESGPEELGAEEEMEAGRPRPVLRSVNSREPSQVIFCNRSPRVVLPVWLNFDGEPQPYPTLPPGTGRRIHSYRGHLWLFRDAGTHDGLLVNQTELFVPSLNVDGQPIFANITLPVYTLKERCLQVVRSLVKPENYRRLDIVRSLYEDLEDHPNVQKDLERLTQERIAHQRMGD
Protocol: as §2
Fig. 6 Changes in BCL-XL and VHL expression after infusion of DT2216 at 0.4 mg/kg in 4 patients. […] Right panel depicts fold changes in VHL expression in the same patients after infusion of DT2216.

BCL-XL [2] = molecular target: T2, BCL-XL (Homo sapiens, UniProt Q07817); assay: BCL-XL levels in WBCs from a normal human donor after incubation with DT2216; format: cell-based; conditions: increasing concentrations, approximately 16 hours incubation, beta actin control
T2 construct: endogenous in cells; host or cells: peripheral leukocytes (WBC) of trial patients
T2 sequence (Q07817 whole entry): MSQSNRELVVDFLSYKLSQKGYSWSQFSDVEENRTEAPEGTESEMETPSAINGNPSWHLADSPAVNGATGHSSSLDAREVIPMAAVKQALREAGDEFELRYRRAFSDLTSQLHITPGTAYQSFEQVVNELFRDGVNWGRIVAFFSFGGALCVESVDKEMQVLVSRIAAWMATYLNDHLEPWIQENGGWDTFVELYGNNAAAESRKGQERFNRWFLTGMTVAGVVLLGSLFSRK
Protocol: Fig. 5 Levels of BCL-XL in WBCs from a normal human donor. They were determined after incubation with increasing concentrations of DT2216 as depicted in the figure for approximately 16 hours. […] BCL-XL expression after incubation with DT2216 in comparison to beta actin which acts as control in the figure

BCL-XL [3] = system: BCL-XL; design: method as in PMID 31792461; conditions: MOLT-4 T-ALL xenografts, after a single dosing; cited from earlier work
[4] = Cohort 1 (0.04 mg/kg), 1 treated
[5] = Cohort 2 (0.08 mg/kg), 1 treated
[6] = Cohort 3 (0.12 mg/kg), 1 treated
[7] = Cohort 4 (0.24 mg/kg), 7 treated
[8] = Cohort 5 (0.32 mg/kg), 6 treated
[9] = Cohort 6 (0.40 mg/kg), 4 treated
[10] = number of subjects, 20 patients, all dose cohorts
[11] = related TEAE, 20 patients, all dose cohorts

Compound: Cc1ncsc1-c1ccc([C@H](C)NC(=O)[C@@H]2C[C@@H](O)CN2C(=O)[C@@H](NC(=O)CCCCCC(=O)N2CCN(CC[C@H](CSc3ccccc3)Nc3ccc(S(=O)(=O)NC(=O)c4ccc(N5CCN(CC6=C(c7ccc(Cl)cc7)CCC(C)(C)C6)CC5)cc4)cc3S(=O)(=O)C(F)(F)F)CC2)C(C)(C)C)cc1 [DT2216]
- fatigue, related TEAE ([1]; 2 patients of 20): 10%
- infusion-related reaction, related TEAE ([1]; 2 patients of 20): 10%
- thrombocytopenia, related TEAE ([1]; 9 patients of 20): 45%
- bleeding events and treatment related deaths ([1]; 20 patients): no episodes of bleeding or treatment emergent adverse events leading to death; also recorded: no major bleeding events or treatment related deaths
- Treatment discontinuation: Adverse event (subjects) [1, 4]: 0
- Treatment discontinuation: Adverse event (subjects) [1, 5]: 0
- Treatment discontinuation: Adverse event (subjects) [1, 6]: 0
- Treatment discontinuation: Adverse event (subjects) [1, 7]: 0
- Treatment discontinuation: Adverse event (subjects) [1, 8]: 0
- Treatment discontinuation: Adverse event (subjects) [1, 9]: 0
- patients with at least one related treatment-emergent adverse event (TEAE) ([1]; Sixteen of 20 patients): 80%
- Treatment discontinuation: Adverse event (subjects) ([1]; Total, 20 treated): 0
- time to platelet count recovery to > 50,000 ([1]; all cases): ≤ 4 days
- time to platelet count recovery to > 75,000 ([1]; all cases): ≤ 1 week
- number of dose-limiting toxicities (grade 4 thrombocytopenia) ([1]; dose escalation 0.04 to 0.4 mg/kg IV BIW, DLT at 0.32 mg/kg): one
- lowest platelet count observed during the study ([1]; human, in vivo): 24,000 /µL
- median duration of dose interruption due to thrombocytopenia ([1]; human, in vivo): 5 days
- time to resolution of the grade 4 thrombocytopenia DLT ([1]; human, in vivo): ≤ 48 h
- Alanine aminotransferase increased, Grade > 3 [1, 10]: 0
- Blood bilirubin increased, Grade > 3 [1, 10]: 0
- Contusion, Grade > 3 [1, 10]: 0
- Decreased appetite, Grade > 3 [1, 10]: 0
- Fatigue, Grade > 3 [1, 10]: 0
- Hematuria, Grade > 3 [1, 10]: 0
- Infusion related reaction, Grade > 3 [1, 10]: 0
- Lipase increased, Grade > 3 [1, 10]: 0
- Temperature intolerance, Grade > 3 [1, 10]: 0
- Thrombocytopenia, Grade > 3 [1, 10]: 1
- patients with dose interruption due to thrombocytopenia ([1]; of 20 patients): 8 patients
- patients with dose reduction due to thrombocytopenia ([1]; of 20 patients): 2 patients and 1 patients
- need for platelet transfusions ([1]; patients with thrombocytopenia): none of the patients required platelet transfusions
- Alanine aminotransferase increased, Number of subjects (%) [1, 11]: 1 (5) subjects (%)
- Blood bilirubin increased, Number of subjects (%) [1, 11]: 1 (5) subjects (%)
- Contusion, Number of subjects (%) [1, 11]: 1 (5) subjects (%)
- Decreased appetite, Number of subjects (%) [1, 11]: 1 (5) subjects (%)
- Fatigue, Number of subjects (%) [1, 11]: 2 (10) subjects (%)
- Hematuria, Number of subjects (%) [1, 11]: 1 (5) subjects (%)
- Infusion related reaction, Number of subjects (%) [1, 11]: 2 (10) subjects (%)
- Lipase increased, Number of subjects (%) [1, 11]: 1 (5) subjects (%)
- Temperature intolerance, Number of subjects (%) [1, 11]: 1 (5) subjects (%)
- Thrombocytopenia, Number of subjects (%) [1, 11]: 9 (45) subjects (%)
- patients who discontinued treatment because of objective disease progression (advanced solid tumors; 15/20 patients): 75%
- stable disease (best response per RECIST v1.1), share of patients (advanced solid tumors; 20 patients, 0.04 to 0.4 mg/kg IV BIW): 20%
- Treatment discontinuation: Clinical progression of neoplastic disease (subjects) (advanced solid tumors; [4]): 1
- Treatment discontinuation: Objective progression of neoplastic disease (subjects) (advanced solid tumors; [4]): 0
- Treatment discontinuation: Clinical progression of neoplastic disease (subjects) (advanced solid tumors; [5]): 0
- Treatment discontinuation: Objective progression of neoplastic disease (subjects) (advanced solid tumors; [5]): 1
- Treatment discontinuation: Clinical progression of neoplastic disease (subjects) (advanced solid tumors; [6]): 0
- Treatment discontinuation: Objective progression of neoplastic disease (subjects) (advanced solid tumors; [6]): 1
- Treatment discontinuation: Clinical progression of neoplastic disease (subjects) (advanced solid tumors; [7]): 2
- Treatment discontinuation: Objective progression of neoplastic disease (subjects) (advanced solid tumors; [7]): 4
- Treatment discontinuation: Clinical progression of neoplastic disease (subjects) (advanced solid tumors; [8]): 1
- Treatment discontinuation: Objective progression of neoplastic disease (subjects) (advanced solid tumors; [8]): 5
- Treatment discontinuation: Clinical progression of neoplastic disease (subjects) (advanced solid tumors; [9]): 0
- Treatment discontinuation: Objective progression of neoplastic disease (subjects) (advanced solid tumors; [9]): 4
- median overall survival (advanced solid tumors; Kaplan–Meier, 95% CI 4.0 – NE): 7.9 months
- Treatment discontinuation: Clinical progression of neoplastic disease (subjects) (advanced solid tumors; Total, 20 treated): 4
- Treatment discontinuation: Objective progression of neoplastic disease (subjects) (advanced solid tumors; Total, 20 treated): 15
- median duration of response (stable disease) (advanced solid tumors; human, in vivo): 107 days
- target liver lesions versus baseline (advanced solid tumors; one person, non-small cell lung adenocarcinoma, 0.24 mg/kg, after C4): decrease in size of target liver lesions
- single-agent activity (advanced solid tumors; patients with different advanced solid tumors): did not demonstrate single-agent activity
- VHL expression in peripheral WBCs (VHL): did not demonstrate a simultaneous drop
- BCL-XL levels in normal human donor WBCs (BCL-XL [2]): capable of completely degrading BCL-XL; also recorded: dose dependent degradation
- duration of BCL-XL degradation (BCL-XL [3]): approximately 2 weeks
